Values after ≈ are worked out from the molar mass of the structure shown.
Test system: Murine bone marrow derived macrophages
Assay: not given
Conditions: not given

Structure (SMILES) | toxicity as measured by MTT assay
CCc1ccc(C=NNc2cc(OC)ncn2)nc1 [PH22-33, 5-ethylpyridine-2-aldehyde-6'-methoxy-4'-pyrimidylhydrazone] | No toxicity was observed

Test system: Mtb H37Rv ATCC 272945
Assay: Drug susceptibility testing, radiometric MIC determination (BACTEC 460TB)
Conditions: Mycobacterium tuberculosis, ATCC272945|H37RV, read-out: minimal inhibitory concentrations
Protocol: Drug susceptibility testing (DST) was performed with the broth-based radiometric BACTEC 460TB system (Becton Dickinson Diagnostic Systems, Sparks, MD) which is considered the laboratory "gold standard". The standard protocol for DST and determination of MICs was strictly followed as recommended by the manufacturers.

Structure (SMILES) | MIC
Cc1ccc(C=NNc2ccc3ccccc3n2)nc1 [PH22-14, 5-methylpyridine-2-aldehyde-2'-quinolylhydrazone] | 0.5 µg/mL (≈ 1.91 µM)
c1ccc(C(=NNc2nncc3ccccc23)c2ccccn2)cc1 [PH22-22, 2-benzoylpyridine-1'-phthalazinylhydrazone] | 5 µg/mL (≈ 15.4 µM)
Cc1cccc(NN=Cc2ccccn2)n1 [PH22-31, pyridine-2-aldehyde-6'-methyl-2'-pyridylhydrazone] | < 1 µg/mL
Clc1ccc(NN=Cc2ccc(OCc3ccccc3)cn2)nn1 [PH22-51, 5-benzyloxypyridine-2-aldehyde-6'-chloro-3'-pyridazinylhydrazone] | 1 µg/mL (≈ 2.94 µM)
Cc1ccc(C=NNc2nncc3ccccc23)nc1 [PH22-16, 5-methyl-pyridine-2-aldehyde-1'-phthalazinylhydrazone] | < 1 µg/mL
CCc1ccc(C=NNc2cc(OC)ncn2)nc1 [PH22-33, 5-ethylpyridine-2-aldehyde-6'-methoxy-4'-pyrimidylhydrazone] | < 0.125 µg/mL
C(=NNc1nncc2ccccc12)c1ccc(OCc2ccccc2)cn1 [PH22-6, 5-benzyloxypyridine-2-aldehyde-1'-phthalazinylhydrazone] | 5 µg/mL (≈ 14.1 µM)
c1ccc(C(=NNc2ccc3ccccc3n2)c2ccccn2)cc1 [PH22-15, 2-benzoylpyridine-2'-quinolylhydrazone] | 0.25 µg/mL (≈ 0.771 µM)
C(=NNc1ccccn1)c1ccc(OCc2ccccc2)cn1 [PH22-49, 5-benzyloxypyridine-2-aldehyde-2'-pyridylhydrazone] | 5 µg/mL (≈ 16.4 µM)
C(=NNc1ncnc2ccccc12)c1ccc(OCc2ccccc2)cn1 [PH22-52, 5-benzyloxypyridine-2-aldehyde-4'-quinazolinylhydrazone] | 1 to 5 µg/mL (≈ 2.81 to 14.1 µM)
